Source: ChEMBL document CHEMBL1201862, “PubChem BioAssay data set” (2004)
Active and inactive are the calls of the source.

Key:
[1] = target: FAD-linked sulfhydryl oxidase ALR (Homo sapiens, UniProt P55789); assay: inhibitors of human ALR sulfhydryl oxidase, dose response, biochemical, H2O2 detection, luminescence, cherry-pick (AID 493248)
[2] = target: T1, Calpain-2 catalytic subunit (Sus scrofa, UniProt P43367); assay: pig calpain II inhibitor potency, dose response, biochemical, fluorogenic peptide substrate (AID 1420); format: functional
T1 sequence (P43367 whole entry): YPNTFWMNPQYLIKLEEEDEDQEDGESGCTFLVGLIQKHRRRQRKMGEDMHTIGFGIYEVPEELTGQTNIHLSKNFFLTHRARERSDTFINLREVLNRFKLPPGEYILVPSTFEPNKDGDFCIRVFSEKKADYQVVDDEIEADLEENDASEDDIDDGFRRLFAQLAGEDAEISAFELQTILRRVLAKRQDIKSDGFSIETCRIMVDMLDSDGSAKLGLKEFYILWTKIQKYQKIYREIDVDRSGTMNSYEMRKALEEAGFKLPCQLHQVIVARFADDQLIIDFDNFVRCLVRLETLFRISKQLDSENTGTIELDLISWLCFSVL

[3] = test system: INS1; assay: beta cell apoptosis inhibitors, cytokine rescue, dose response, luminescence, retest (AID 449756); format: functional, cell-based; settings: Rattus norvegicus;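 also: cell death triggered by IL-1 beta plus TNF-alpha plus IFN-gamma mixture; protective hits raise ATP signal compared with cytokine alone wells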
[4] = target: Large T antigen (Simian virus 40, UniProt P03070); format: functional, Betapolyomavirus macacae;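 also: Confirmatory-stage PubChem screen for compounds that inhibit SV40 T antigen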
Large T antigen, sequence (P03070 whole entry): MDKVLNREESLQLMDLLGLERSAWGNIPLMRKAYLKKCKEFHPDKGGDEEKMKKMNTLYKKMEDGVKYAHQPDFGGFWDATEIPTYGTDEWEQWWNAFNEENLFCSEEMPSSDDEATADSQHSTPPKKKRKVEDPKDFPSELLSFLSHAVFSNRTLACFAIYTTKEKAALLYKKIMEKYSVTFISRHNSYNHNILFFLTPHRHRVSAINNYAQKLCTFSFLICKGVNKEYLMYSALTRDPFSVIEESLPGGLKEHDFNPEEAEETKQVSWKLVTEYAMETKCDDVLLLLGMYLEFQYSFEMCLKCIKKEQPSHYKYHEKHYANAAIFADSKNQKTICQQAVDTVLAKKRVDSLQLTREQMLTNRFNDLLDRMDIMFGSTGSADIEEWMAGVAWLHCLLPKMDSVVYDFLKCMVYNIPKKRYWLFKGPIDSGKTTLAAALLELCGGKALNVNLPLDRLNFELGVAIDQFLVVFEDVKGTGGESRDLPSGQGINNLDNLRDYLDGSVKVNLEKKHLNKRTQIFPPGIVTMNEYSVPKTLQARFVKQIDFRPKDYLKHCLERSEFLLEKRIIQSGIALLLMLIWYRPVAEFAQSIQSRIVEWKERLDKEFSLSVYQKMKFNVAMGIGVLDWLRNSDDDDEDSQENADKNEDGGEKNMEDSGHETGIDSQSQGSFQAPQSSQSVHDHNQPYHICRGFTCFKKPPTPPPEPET

[5] = HEp-2 cell cytotoxicity, dose response, cytotoxicity control for RSV inhibitor project, HTS (AID 2410); format: functional; settings: human respiratory syncytial virus
[6] = cytotoxicity toward DRD oncogenic fibroblasts, dose response, cell-based, non-viral oncogenic, luminescence (AID 1934); format: functional; settings: Homo sapiens
[7] = test system: BJ; assay: cells; format: functional, cell-based; settings: Homo sapiens
[8] = test system: BJ; assay: cytotoxicity toward BJ-TERT fibroblasts, dose response, cell-based, RAS-independent, luminescence (AID 1933); format: functional; settings: Homo sapiens
[9] = test system: BJ; assay: cytotoxicity toward BJ-TERT-LT-ST fibroblasts, dose response, cell-based, RAS-independent, luminescence (AID 1935); format: functional; settings: Homo sapiens;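 also: BJ fibroblasts immortalized with TERT plus LT and ST oncogenes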
[10] = target: Genome polyprotein (dengue virus type 2, UniProt P29990); assay: Dengue-2 NS5 methyltransferase inhibitors, primary screen, biochemical, confirmation dose response (AID 588689); format: functional
Genome polyprotein, sequence (P29990 2492-3391 limits assumed): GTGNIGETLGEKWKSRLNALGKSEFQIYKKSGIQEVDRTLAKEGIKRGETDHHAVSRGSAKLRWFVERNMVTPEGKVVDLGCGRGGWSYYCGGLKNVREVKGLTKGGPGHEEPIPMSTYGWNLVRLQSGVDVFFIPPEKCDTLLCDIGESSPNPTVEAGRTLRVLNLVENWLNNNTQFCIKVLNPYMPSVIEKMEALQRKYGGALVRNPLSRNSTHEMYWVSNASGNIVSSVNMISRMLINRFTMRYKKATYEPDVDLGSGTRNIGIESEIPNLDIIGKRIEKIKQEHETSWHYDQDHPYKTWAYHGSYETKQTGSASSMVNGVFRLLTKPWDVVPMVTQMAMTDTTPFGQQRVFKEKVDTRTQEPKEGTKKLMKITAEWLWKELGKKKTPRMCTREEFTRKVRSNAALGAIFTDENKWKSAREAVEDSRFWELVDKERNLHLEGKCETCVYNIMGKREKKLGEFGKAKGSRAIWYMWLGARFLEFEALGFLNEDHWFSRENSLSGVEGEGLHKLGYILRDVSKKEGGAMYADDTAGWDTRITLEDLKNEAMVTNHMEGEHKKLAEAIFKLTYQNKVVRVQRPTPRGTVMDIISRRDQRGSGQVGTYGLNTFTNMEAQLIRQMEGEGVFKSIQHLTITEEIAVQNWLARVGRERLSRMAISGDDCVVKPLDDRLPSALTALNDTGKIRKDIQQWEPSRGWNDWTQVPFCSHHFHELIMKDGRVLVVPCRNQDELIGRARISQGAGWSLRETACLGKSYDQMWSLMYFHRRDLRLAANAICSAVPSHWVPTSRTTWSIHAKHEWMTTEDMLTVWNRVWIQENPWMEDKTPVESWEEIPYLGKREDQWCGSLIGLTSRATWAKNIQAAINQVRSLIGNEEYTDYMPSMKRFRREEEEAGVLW

[11] = target: Luciferin 4-monooxygenase (Photinus pyralis, UniProt P08659); assay: firefly luciferase enzyme inhibitors, dose response, biochemical, luminescence (AID 1891)
Luciferin 4-monooxygenase, sequence (P08659 whole entry): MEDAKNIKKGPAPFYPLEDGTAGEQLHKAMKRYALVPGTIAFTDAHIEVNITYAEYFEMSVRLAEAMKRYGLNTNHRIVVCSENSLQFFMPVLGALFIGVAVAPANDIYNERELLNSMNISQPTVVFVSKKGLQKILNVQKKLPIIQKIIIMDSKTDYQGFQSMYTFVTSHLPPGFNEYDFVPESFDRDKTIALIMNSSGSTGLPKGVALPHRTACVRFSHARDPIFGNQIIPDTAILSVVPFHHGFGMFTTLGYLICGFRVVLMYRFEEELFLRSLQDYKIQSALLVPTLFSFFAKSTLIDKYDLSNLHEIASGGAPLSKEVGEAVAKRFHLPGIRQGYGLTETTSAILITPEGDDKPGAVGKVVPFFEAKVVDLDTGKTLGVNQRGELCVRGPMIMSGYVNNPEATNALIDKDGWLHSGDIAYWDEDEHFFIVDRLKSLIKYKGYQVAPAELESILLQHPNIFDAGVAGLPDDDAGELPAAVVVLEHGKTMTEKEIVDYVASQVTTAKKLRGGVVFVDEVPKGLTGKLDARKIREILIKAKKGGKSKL

[12] = target: Cytochrome P450 2C9 (Homo sapiens, UniProt P11712)
Cytochrome P450 2C9, sequence (P11712 whole entry): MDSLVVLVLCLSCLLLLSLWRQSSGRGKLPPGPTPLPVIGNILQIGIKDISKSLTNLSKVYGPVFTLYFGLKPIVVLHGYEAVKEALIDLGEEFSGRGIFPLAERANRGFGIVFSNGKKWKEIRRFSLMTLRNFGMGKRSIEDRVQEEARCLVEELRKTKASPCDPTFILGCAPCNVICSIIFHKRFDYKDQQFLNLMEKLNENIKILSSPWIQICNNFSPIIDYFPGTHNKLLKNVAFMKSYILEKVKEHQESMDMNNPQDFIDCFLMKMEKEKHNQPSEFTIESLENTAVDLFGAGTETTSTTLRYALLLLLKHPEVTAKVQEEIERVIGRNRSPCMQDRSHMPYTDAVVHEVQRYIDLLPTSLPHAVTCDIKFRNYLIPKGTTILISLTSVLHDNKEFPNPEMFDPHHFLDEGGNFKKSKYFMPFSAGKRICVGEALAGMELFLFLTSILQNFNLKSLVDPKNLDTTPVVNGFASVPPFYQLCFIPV

[13] = Luminescence Cell-Based Dose Confirmation HTS to Identify Inhibitors of Platelet Dense Granule Release. [Related pubchem assays: 1663 (Primary HTS), 1678 (Summary of Project)]; format: functional
[14] = microbe, parasite or virus in culture; format: functional; settings: Mycobacterium tuberculosis
[15] = inhibitors of firefly luciferase expression or activity, dose response, H4 neuroglioma cells, luminescence (AID 1990); format: functional, cell-based
[16] = inhibitors of SNCA 5'UTR-driven reporter translation, confirmation, H4 neuroglioma cells, luminescence (AID 1988); format: functional, cell-based
[17] = Luminescence Cell-Based Dose Response HTS to Identify Inhibitors of 5'UTR Stem-Loop Driven Prion Protein mRNA Translation in H4 Neuroglioblastoma Cells. [Related pubchem assays: 1827 (Project Summary), 1813 (Primary HTS)]; format: functional

FAD-linked sulfhydryl oxidase ALR, sequence (P55789 whole entry): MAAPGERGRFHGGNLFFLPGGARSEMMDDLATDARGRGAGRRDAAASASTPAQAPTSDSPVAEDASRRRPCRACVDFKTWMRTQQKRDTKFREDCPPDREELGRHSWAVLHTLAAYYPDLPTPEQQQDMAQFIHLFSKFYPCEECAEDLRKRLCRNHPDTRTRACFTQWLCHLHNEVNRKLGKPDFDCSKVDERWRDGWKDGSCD

With `Cc1ccc(N/N=C2\CCS(=O)(=O)c3sccc32)cc1` the AC50 [1] was 0.311 µM (active) and the IC50 [2] was > 50 µM (not active).
In the case of `COc1ccc(NC(=O)CN(C)C(=O)/C=C/c2ccc(S(=O)(=O)N3CCCCCC3)cc2)cc1`, the AC50 [3] is reported as 24.3 µM (active).
With `Cc1c(NC(=O)COC(=O)COc2ccc(Nc3ccccc3)cc2)c(=O)n(-c2ccccc2)n1C` the IC50 [4] was 35.3 µM (active).
With `C1CCCCC1.OCCN1CCN(C2Cc3cc(Cl)ccc3Sc3ccc(Cl)cc32)CC1` (centres undefined) the CC50 [5] was 13.8 µM (active) and the AC50 [3] was 13 µM (active).
For `COc1ccc(Nc2nc(N)c(C(=O)c3ccc(F)cc3)s2)cc1`, the EC50 [6] was 2.8 µM (inconclusive), the EC50 [7] was 54.4 µM (inconclusive) and the EC50 [8] was 2.89 µM (inconclusive). For the same compound, the EC50 [9] was 37.5 µM (active).
With `O=C(O)CN1C(=O)/C(=C\c2ccccc2OCc2ccc(Cl)cc2)SC1=S` the IC50 [10] was 43.3 µM (active).
For `COc1ccc(CC(=O)Nc2ccccc2N2CCCC2)cc1OC`, the AC50 [1] was 12.6 µM (active).
With `Cc1ccc(CNc2ccc(N3CCOCC3)cc2)cc1` the IC50 [4] was 5.62 µM (active).
For `COc1ccc(CC(=O)N2CCN(c3ccc(C4=NNC(=O)CC4C)cc3)CC2)cc1` (centres undefined), the EC50 [11] was > 112 µM (not active), the AC50 [12] was 8.91 µM (inconclusive) and the EC50 [13] was < 0.088 µM (active). For the same compound, the AC50 [1] was 20.8 µM (active).
For `CC(O)CNc1nc2ccccc2n1-c1ncnc2sc3c(c12)CCC3` (centres undefined), the CC50 [14] was 29.6 µM (active).
For `Oc1ccc(N2CCN(C(c3ccncc3)c3nnnn3C3CCCC3)CC2)cc1` (centres undefined), the IC50 [4] was 5.61 µM (active).
In the case of `CC(C)c1ccc(NC(=O)Cc2c(C(=O)O)n(C)c3ccccc23)cc1`, the AC50 [1] is reported as 6.73 µM (active).
For `CCOC(=O)c1cnc2c(Cl)ccc(Cl)c2c1O`, the IC50 [2] was 17.3 µM (not active).
For `CC1(C)CC(=O)C(C(C2=C(O)CC(C)(C)CC2=O)c2ccc(O)c([N+](=O)[O-])c2)=C(O)C1`, the IC50 [10] was 9.49 µM (active).
In the case of `CN(C)c1ccc(/C=N/NS(=O)(=O)c2ccc(Br)cc2)cc1`, the AC50 [1] is reported as 33.5 µM (active).
For `CC1CCCC/C1=N\NC(=S)NCCc1ccccc1` (centres undefined), the CC50 [14] was > 40 µM (active).
In the case of `Cc1nc2ccc(S(=O)(=O)NCC(=O)N(C)Cc3ccccc3)cc2s1`, the AC50 [1] is reported as 1.05 µM (active).
In the case of `CCN(CC)c1ccc(NC(=O)c2cccc(C)c2OC)c(C)c1`, the IC50 [4] is reported as 32 µM (active).
With `COc1cc(OC)cc(C(=O)c2c(C)c(C#N)c3ccccn23)c1` the EC50 [15] was 15 µM (active), the EC50 [16] was 2.6 µM (active) and the EC50 [6] was 1.49 µM (active). For the same compound, the EC50 [7] was 0.769 µM (active), the EC50 [8] was 2.54 µM (active) and the EC50 [9] was 1.46 µM (inconclusive). For the same compound, the EC50 [17] was > 120 µM (not active).
With `O=[N+]([O-])c1ccc(N2CCN(c3ccc(O)cc3)CC2)cn1` the IC50 [4] was 26.7 µM (active).
